According to patent US10738030B2, “Modulators of cystic fibrosis transmembrane conductance regulator” (Vertex Pharmaceuticals Incorporated, priority 2016, dated 2020):

Biological target: T1, F508del (Homo sapiens, UniProt P13569, DEL508-508)
T1 construct: expressed in transfected cells
Experiment: Membrane potential optical assay (FRET voltage-sensor dyes), identification of correction compounds
Assay type: cell-based
Settings: NIH3T3 cells stably expressing F508del, procedures described above; for Emax: maximum efficacy, read-out: Max Efficacy; for EC50: modulation of CFTR activity
Experimental: (§1) NIH3T3 mouse fibroblasts stably expressing F508del are used for optical measurements of membrane potential. The cells are maintained at 37° C. in 5% CO2 and 90% humidity in Dulbecco's modified Eagle's medium supplemented with 2 mM glutamine, 10% fetal bovine serum, 1×NEAA, β-ME, 1× pen/strep, and 25 mM HEPES in 175 cm^2 culture flasks. For all optical assays, the cells were seeded at 12,000 cells/well in 384-well matrigel-coated plates and cultured for 18-24 hrs at 37° C. for the potentiator assay. For the correction assays, the cells are cultured at 37° C. with and without compounds for 18-24 hours.
Membrane potential optical methods for assaying F508del modulation properties of compounds.
The optical membrane potential assay utilized voltage-sensitive FRET sensors described by Gonzalez and Tsien (See Gonzalez, J. E. and R. Y. Tsien (1995) “Voltage sensing by fluorescence resonance energy transfer in single cells” Biophys J 69(4): 1272-80, and Gonzalez, J. E. and R. Y. Tsien (1997) “Improved indicators of cell membrane potential that use fluorescence resonance energy transfer” Chem Biol 4(4): 269-77) in combination with instrumentation for measuring fluorescence changes such as the Voltage/Ion Probe Reader (VIPR) (See, Gonzalez, J. E., K. Oades, et al. (1999) “Cell-based assays and instrumentation for screening ion-channel targets” Drug Discov Today 4(9): 431-439).
These voltage sensitive assays are based on the change in fluorescence resonant energy transfer (FRET) between the membrane-soluble, voltage-sensitive dye, DiSBAC2(3), and a fluorescent phospholipid, CC2-DMPE, which is attached to the outer leaflet of the plasma membrane and acts as a FRET donor. Changes in membrane potential (Vm) cause the negatively charged DiSBAC2(3) to redistribute across the plasma membrane and the amount of energy transfer from CC2-DMPE changes accordingly. The changes in fluorescence emission were monitored using VIPR™ II, which is an integrated liquid handler and fluorescent detector designed to conduct cell-based screens in 96- or 384-well microtiter plates.
To identify small molecules that correct the trafficking defect associated with F508del; a single-addition HTS assay format was developed. The cells were incubated in serum-free medium for 16 hrs at 37° C. in the presence or absence (negative control) of test compound. As a positive control, cells plated in 384-well plates were incubated for 16 hrs at 27° C. to “temperature-correct” F508del. The cells were subsequently rinsed 3× with Krebs Ringers solution and loaded with the voltage-sensitive dyes. To activate F508del, 10 μM forskolin and the CFTR potentiator, genistein (20 μM), were added along with Cl^−-free medium to each well. The addition of Cl^−-free medium promoted Cl^− efflux in response to F508del activation and the resulting membrane depolarization was optically monitored using the FRET-based voltage-sensor dyes.
• Bath Solution #1: (in mM) NaCl 160, KCl 4.5, CaCl2 2, MgCl2 1, HEPES 10, pH 7.4 with NaOH. • Chloride-free bath solution: Chloride salts in Bath Solution #1 (above) are substituted with gluconate salts. • CC2-DMPE: Prepared as a 10 mM stock solution in DMSO and stored at −20° C. • DiSBAC2(3): Prepared as a 10 mM stock in DMSO and stored at −20° C. Cell Culture
as §1, with “seeded at 30,000/well in 384-well” for “seeded at 12,000 cells/well in 384-well”, “cultured for 2 hrs at” for “cultured for 18-24 hrs at”, “37° C. before culturing at 27° C. for 24 hrs for the” for “37° C. for the”, “cultured at 27° C. or 37° C.” for “cultured at 37° C.”, “compounds for 16-24 hours.” for “compounds for 18-24 hours.”

T1 sequence (P13569 with tags, fused parts or gaps DEL508-508): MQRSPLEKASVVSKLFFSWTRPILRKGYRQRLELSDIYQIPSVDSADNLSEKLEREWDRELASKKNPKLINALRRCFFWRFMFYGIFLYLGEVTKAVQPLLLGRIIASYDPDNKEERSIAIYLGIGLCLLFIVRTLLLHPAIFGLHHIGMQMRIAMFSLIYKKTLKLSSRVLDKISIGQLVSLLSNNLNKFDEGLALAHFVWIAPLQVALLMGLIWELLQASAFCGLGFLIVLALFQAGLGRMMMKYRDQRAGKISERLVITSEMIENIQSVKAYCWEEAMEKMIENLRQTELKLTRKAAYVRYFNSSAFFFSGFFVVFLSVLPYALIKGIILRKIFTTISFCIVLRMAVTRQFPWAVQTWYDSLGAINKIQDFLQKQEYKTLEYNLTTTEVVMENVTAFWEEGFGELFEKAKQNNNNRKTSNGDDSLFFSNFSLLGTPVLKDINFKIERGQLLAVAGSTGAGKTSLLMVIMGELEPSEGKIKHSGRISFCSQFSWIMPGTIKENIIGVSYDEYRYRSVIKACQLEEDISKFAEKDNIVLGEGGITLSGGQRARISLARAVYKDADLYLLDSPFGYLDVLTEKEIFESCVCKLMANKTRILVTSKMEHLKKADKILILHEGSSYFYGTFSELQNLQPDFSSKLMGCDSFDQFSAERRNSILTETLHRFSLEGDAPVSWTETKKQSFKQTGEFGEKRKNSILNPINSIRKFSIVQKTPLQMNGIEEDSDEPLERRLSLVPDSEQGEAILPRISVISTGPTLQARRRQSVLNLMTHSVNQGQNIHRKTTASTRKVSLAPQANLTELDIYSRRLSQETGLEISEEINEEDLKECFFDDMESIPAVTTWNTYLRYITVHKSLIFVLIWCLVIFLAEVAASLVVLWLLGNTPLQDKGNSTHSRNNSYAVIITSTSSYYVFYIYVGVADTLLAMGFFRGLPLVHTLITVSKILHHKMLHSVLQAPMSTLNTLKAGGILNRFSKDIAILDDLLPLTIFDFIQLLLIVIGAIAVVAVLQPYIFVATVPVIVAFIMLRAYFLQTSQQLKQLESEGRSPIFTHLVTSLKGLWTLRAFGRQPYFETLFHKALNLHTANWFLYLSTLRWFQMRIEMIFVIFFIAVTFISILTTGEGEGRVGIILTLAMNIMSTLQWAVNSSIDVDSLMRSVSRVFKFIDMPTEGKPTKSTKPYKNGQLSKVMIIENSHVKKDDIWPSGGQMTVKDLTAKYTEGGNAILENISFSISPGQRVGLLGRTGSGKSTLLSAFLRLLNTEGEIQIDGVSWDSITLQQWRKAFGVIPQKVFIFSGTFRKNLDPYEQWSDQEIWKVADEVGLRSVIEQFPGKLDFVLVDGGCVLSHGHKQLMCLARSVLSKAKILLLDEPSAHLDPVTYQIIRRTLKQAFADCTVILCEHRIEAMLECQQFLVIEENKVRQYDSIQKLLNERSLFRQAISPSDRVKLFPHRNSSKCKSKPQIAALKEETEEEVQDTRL

| SMILES | Emax | EC50 |
| --- | --- | --- |
| COCC(C)Oc1nc(-c2cc(F)cc(OCC(C)C)c2)ccc1C(=O)NS(=O)(=O)c1cccc(N)n1 (centres unmarked) [Compound 23, N-[(6-amino-2-pyridyl)sulfonyl]-6-(3-fluoro-5-isobutoxy-phenyl)-2-(2-methoxy-1-methyl-ethoxy)pyridine-3-carboxamide] | 30 to 80% | 3 to 10 µM |
| CC(C)COc1cc(F)cc(-c2ccc(C(=O)NS(=O)(=O)c3cccc(N)n3)c(OC(C)CC(C)C)n2)c1 (centres unmarked) [Compound 24, N-[(6-amino-2-pyridyl)sulfonyl]-2-(1,3-dimethylbutoxy)-6-(3-fluoro-5-isobutoxy-phenyl)pyridine-3-carboxamide] | > 80% | < 3 µM |
| CC(C)COc1cc(F)cc(-c2ccc(C(=O)NS(=O)(=O)c3cccc(N)n3)c(OC(C)C(C)(C)C)n2)c1 (centres unmarked) [Compound 25, N-[(6-amino-2-pyridyl)sulfonyl]-6-(3-fluoro-5-isobutoxy-phenyl)-2-(1,2,2-trimethylpropoxy)pyridine-3-carboxamide] | 30 to 80% | < 3 µM |
| CC(C)COc1cc(F)cc(-c2ccc(C(=O)NS(=O)(=O)c3cccc(N)n3)c(OC(C(C)C)C(C)C)n2)c1 [Compound 26, N-[(6-amino-2-pyridyl)sulfonyl]-6-(3-fluoro-5-isobutoxy-phenyl)-2-(1-isopropyl-2-methyl-propoxy)pyridine-3-carboxamide] | 30 to 80% | < 3 µM |
| CCCOc1nc(-c2cc(F)cc(OCC(C)C)c2)ccc1C(=O)NS(=O)(=O)c1cccc(N)n1 [Compound 27, N-[(6-amino-2-pyridyl)sulfonyl]-6-(3-fluoro-5-isobutoxy-phenyl)-2-propoxy-pyridine-3-carboxamide] | > 80% | < 3 µM |
| C/C=C/COc1nc(-c2cc(F)cc(OCC(C)C)c2)ccc1C(=O)NS(=O)(=O)c1cccc(N)n1 [Compound 28, N-[(6-amino-2-pyridyl)sulfonyl]-2-[(E)-but-2-enoxy]-6-(3-fluoro-5-isobutoxy-phenyl)pyridine-3-carboxamide] | 30 to 80% | < 3 µM |
| CC[C@H](C)Oc1nc(-c2cc(F)cc(OCC(C)C)c2)ccc1C(=O)NS(=O)(=O)c1cccc(N)n1 [Compound 29, N-[(6-amino-2-pyridyl)sulfonyl]-6-(3-fluoro-5-isobutoxy-phenyl)-2-[(1S)-1-methylpropoxy]pyridine-3-carboxamide] | 30 to 80% | < 3 µM |
| CCOc1nc(-c2cc(F)cc(OCC(C)C)c2)ccc1C(=O)NS(=O)(=O)c1cccc(N)n1 [Compound 30, N-[(6-amino-2-pyridyl)sulfonyl]-2-ethoxy-6-(3-fluoro-5-isobutoxy-phenyl)pyridine-3-carboxamide] | 30 to 80% | < 3 µM |
| CC(C)COc1cc(F)cc(-c2ccc(C(=O)NS(=O)(=O)c3cccc(N)n3)c(N(C)C(C)C)n2)c1 [Compound 31, N-[(6-amino-2-pyridyl)sulfonyl]-6-(3-fluoro-5-isobutoxy-phenyl)-2-[isopropyl(methyl)amino]pyridine-3-carboxamide] | > 80% | < 3 µM |
| CC(C)COc1cc(F)cc(-c2ccc(C(=O)NS(=O)(=O)c3cccc(N)n3)c(OCC(C)(C)C)n2)c1 [Compound 32, N-[(6-amino-2-pyridyl)sulfonyl]-2-(2,2-dimethylpropoxy)-6-(3-fluoro-5-isobutoxy-phenyl)pyridine-3-carboxamide] | > 80% | < 3 µM |
| CC(C)COc1cc(F)cc(-c2ccc(C(=O)NS(=O)(=O)c3cccc(N)n3)c(OC(C(F)(F)F)C(F)(F)F)n2)c1 [Compound 33, N-[(6-amino-2-pyridyl)sulfonyl]-6-(3-fluoro-5-isobutoxy-phenyl)-2-[2,2,2-trifluoro-1-(trifluoromethyl)ethoxy]pyridine-3-carboxamide] | 30 to 80% | < 3 µM |
| CCC(Oc1nc(-c2cc(F)cc(OCC(C)C)c2)ccc1C(=O)NS(=O)(=O)c1cccc(N)n1)C(C)(C)C (centres unmarked) [Compound 34] | > 80% | < 3 µM |
| CC#CCCOc1nc(-c2cc(F)cc(OCC(C)C)c2)ccc1C(=O)NS(=O)(=O)c1cccc(N)n1 [Compound 35, N-[(6-amino-2-pyridyl)sulfonyl]-6-(3-fluoro-5-isobutoxy-phenyl)-2-pent-3-ynoxy-pyridine-3-carboxamide] | 30 to 80% | < 3 µM |
| CC(C)COc1cc(F)cc(-c2ccc(C(=O)NS(=O)(=O)c3cccc(N)n3)c(OC(C)CC(C)(C)C)n2)c1 (centres unmarked) [Compound 36, N-[(6-amino-2-pyridyl)sulfonyl]-6-(3-fluoro-5-isobutoxy-phenyl)-2-(1,3,3-trimethylbutoxy)pyridine-3-carboxamide] | 30 to 80% | < 3 µM |
| CC(C)=C(C)c1nc(-c2cc(F)cc(OCC(C)C)c2)ccc1C(=O)NS(=O)(=O)c1cccc(N)n1 [Compound 37, N-[(6-amino-2-pyridyl)sulfonyl]-2-(1,2-dimethylprop-1-enyl)-6-(3-fluoro-5-isobutoxy-phenyl)pyridine-3-carboxamide] | 30 to 80% | < 3 µM |
| CC(C)COc1cc(F)cc(-c2ccc(C(=O)NS(=O)(=O)c3cccc(N)n3)c(OCC(F)F)n2)c1 [Compound 38, N-[(6-amino-2-pyridyl)sulfonyl]-2-(2,2-difluoroethoxy)-6-(3-fluoro-5-isobutoxy-phenyl)pyridine-3-carboxamide] | 30 to 80% | 3 to 10 µM |
| CCCNc1cccc(S(=O)(=O)NC(=O)c2ccc(-c3cc(F)cc(OCC(C)C)c3)nc2NCCC)n1 [Compound 39, 6-(3-fluoro-5-isobutoxy-phenyl)-2-(propylamino)-N-[[6-(propylamino)-2-pyridyl]sulfonyl]pyridine-3-carboxamide] | 30 to 80% | < 3 µM |
| CCC(Oc1nc(-c2cc(F)cc(OCC(C)C)c2)ccc1C(=O)NS(=O)(=O)c1cccc(N)n1)C(C)C (centres unmarked) [Compound 40, N-[(6-amino-2-pyridyl)sulfonyl]-2-(1-ethyl-2-methyl-propoxy)-6-(3-fluoro-5-isobutoxy-phenyl)pyridine-3-carboxamide] | 30 to 80% | < 3 µM |
| CC(C)COc1cc(F)cc(-c2ccc(C(=O)NS(=O)(=O)c3cccc(N)n3)c(N(C(C)C)C(C)C)n2)c1 [Compound 41, N-[(6-amino-2-pyridyl)sulfonyl]-2-(diisopropylamino)-6-(3-fluoro-5-isobutoxy-phenyl)pyridine-3-carboxamide] | > 80% | < 3 µM |
| C=CC(C)Oc1nc(-c2cc(F)cc(OCC(C)C)c2)ccc1C(=O)NS(=O)(=O)c1cccc(N)n1 (centres unmarked) [Compound 42, N-[(6-amino-2-pyridyl)sulfonyl]-6-(3-fluoro-5-isobutoxy-phenyl)-2-(1-methylallyloxy)pyridine-3-carboxamide] | > 80% | < 3 µM |
| C=CCOc1nc(-c2cc(F)cc(OCC(C)C)c2)ccc1C(=O)NS(=O)(=O)c1cccc(N)n1 [Compound 43, 2-allyloxy-N-[(6-amino-2-pyridyl)sulfonyl]-6-(3-fluoro-5-isobutoxy-phenyl)pyridine-3-carboxamide] | 30 to 80% | < 3 µM |
| CCC(C)(C)Oc1nc(-c2cc(F)cc(OCC(C)C)c2)ccc1C(=O)NS(=O)(=O)c1cccc(N)n1 [Compound 44, N-[(6-amino-2-pyridyl)sulfonyl]-2-(1,1-dimethylpropoxy)-6-(3-fluoro-5-isobutoxy-phenyl)pyridine-3-carboxamide] | > 80% | < 3 µM |
